Reference: paper PMC7179302, “Lead Optimization of Dehydroemetine for Repositioned Use in Malaria” (Antimicrobial Agents and Chemotherapy, 2020)
Where a name gives a salt, the structure may show the parent alone.

Key:
Format in all cases: cell-based
[1] = tested on: Plasmodium falciparum rings and trophozoites/schizonts; assay: Stage-specific profiling using synchronized cultures; conditions: highest concentration tested, 24 h exposure, read 24 h after postexposure wash
Protocol: Parasite cultures with ≥80% trophozoites and ≥80% rings were obtained by synchronization with 5% sorbitol ([42]). The cultures were synchronized twice, at 0 h and 31 h, to obtain young rings which were up to 3 h old. To obtain early schizont stages, the cultures were synchronized twice, with the second synchronization being 6 to 8 h after the first. […] The plates were washed 4 times after the incubation in order to dilute the drug concentration by >1,000-fold. The plates were incubated for another 24 h at 37°C, following which SYBR green staining was used to read the plates as described above.

[2] = tested on: male gametocytes in P. falciparum strain NF54; assay: Dual gamete formation assay, male gametocytes (exflagellation); conditions: Plasmodium falciparum, 48 h incubation
Protocol: A bioassay was performed to assess the malaria transmission-blocking potential of compounds on P. falciparum strain NF54 by estimating their ability to prevent male mature gametocytes from progressing to male microgametes or/and to inhibit female gamete activation, as indicators of gametocyte functionality. The NF54 strain was selected for its increased ability to produce gametocytes under in vitro conditions ([45]). The activation of male gametocytes into mature microgametes is evaluated by the process of exflagellation (extrusion of rapidly waving flagellum-like microgametes from the infected erythrocyte). The activation of female gametocytes is evaluated based on the specific expression of the P. falciparum s25 (Pfs25) protein at the surface of the female activated gametes ([46]). […]
Asexual cultures of P. falciparum strain NF54 parasites were used to seed gametocyte cultures at 0.5% parasitemia, 4% hematocrit in a 50-ml total volume under 3% O2, 5% CO2, 92% N2 gas. […] Plates were analyzed to detect exflagellation centers. […] Then, plates were analyzed to detect female activated gametes. Activation of male gametes was detected based on light changes provoked by flagellar movements that caused movement of surrounding cells. A 10-frame video was taken and then analyzed to determine these changes in cell position based on changes in pixels. […]

hERG potassium channel = biological target: T1, hERG potassium channel (Homo sapiens, UniProt Q12809); assay: hERG channel inhibition assay (CHO cells, whole-cell voltage clamp, Cyprotex); conditions: for selectivity ratio at 300 s / inhibition at 300 s, 0.016 µM / inhibition at 300 s, 0.08 µM / inhibition at 300 s, 0.4 µM / inhibition at 300 s, 2 µM / inhibition at 300 s, 10 µM / inhibition at 300 s, 50 µM: human; for selectivity ratio at 300 s: CHO cells expressing the hERG potassium channel, read-out: Selectivity index, IC50 hERG/IC50 parasites
T1 construct: host or cells: Chinese hamster ovary (CHO) cells
Protocol: For each replicate, the hERG response was calculated using the following equation: % hERG response = post-compound-application current (nA)/pre-compound-application current (nA) × 100.
The experiment to test the potential of emetine, (−)-R,S-dehydroemetine, and (−)-S,S-dehydroisoemetine to inhibit the hERG channel was outsourced to Cyprotex, UK. One-hundred-microliter amounts of a 20 mM concentration of each of the three compounds in DMSO was provided to Cyprotex. […] Chinese Hamster ovary cells expressing the hERG potassium channel were dispensed into 384-well planar arrays, and hERG tail currents were measured by whole-cell voltage clamping. Amphotericin B was used as a perforating agent that was circulated underneath the PatchPlate to gain electrical access to the cell. The pre-compound-application hERG current was measured. Emetine, (−)-R,S-dehydroemetine, and (−)-S,S-dehydroisoemetine in ranges of concentrations were then added to the cells, and a second recording of the hERG current was made. The test compound was left in contact with the cells for 300 s before currents were recorded. […] All buffers, cell suspensions, and drug compound solutions were at room temperature. The percentage of change in hERG current was measured and used to calculate an IC50 value.
Each concentration was tested in 4 replicate wells on the PatchPlate (maximum of 24 data points). Filters were applied to ensure that only acceptable cells were used to assess hERG inhibition.

T1 sequence (Q12809 whole entry): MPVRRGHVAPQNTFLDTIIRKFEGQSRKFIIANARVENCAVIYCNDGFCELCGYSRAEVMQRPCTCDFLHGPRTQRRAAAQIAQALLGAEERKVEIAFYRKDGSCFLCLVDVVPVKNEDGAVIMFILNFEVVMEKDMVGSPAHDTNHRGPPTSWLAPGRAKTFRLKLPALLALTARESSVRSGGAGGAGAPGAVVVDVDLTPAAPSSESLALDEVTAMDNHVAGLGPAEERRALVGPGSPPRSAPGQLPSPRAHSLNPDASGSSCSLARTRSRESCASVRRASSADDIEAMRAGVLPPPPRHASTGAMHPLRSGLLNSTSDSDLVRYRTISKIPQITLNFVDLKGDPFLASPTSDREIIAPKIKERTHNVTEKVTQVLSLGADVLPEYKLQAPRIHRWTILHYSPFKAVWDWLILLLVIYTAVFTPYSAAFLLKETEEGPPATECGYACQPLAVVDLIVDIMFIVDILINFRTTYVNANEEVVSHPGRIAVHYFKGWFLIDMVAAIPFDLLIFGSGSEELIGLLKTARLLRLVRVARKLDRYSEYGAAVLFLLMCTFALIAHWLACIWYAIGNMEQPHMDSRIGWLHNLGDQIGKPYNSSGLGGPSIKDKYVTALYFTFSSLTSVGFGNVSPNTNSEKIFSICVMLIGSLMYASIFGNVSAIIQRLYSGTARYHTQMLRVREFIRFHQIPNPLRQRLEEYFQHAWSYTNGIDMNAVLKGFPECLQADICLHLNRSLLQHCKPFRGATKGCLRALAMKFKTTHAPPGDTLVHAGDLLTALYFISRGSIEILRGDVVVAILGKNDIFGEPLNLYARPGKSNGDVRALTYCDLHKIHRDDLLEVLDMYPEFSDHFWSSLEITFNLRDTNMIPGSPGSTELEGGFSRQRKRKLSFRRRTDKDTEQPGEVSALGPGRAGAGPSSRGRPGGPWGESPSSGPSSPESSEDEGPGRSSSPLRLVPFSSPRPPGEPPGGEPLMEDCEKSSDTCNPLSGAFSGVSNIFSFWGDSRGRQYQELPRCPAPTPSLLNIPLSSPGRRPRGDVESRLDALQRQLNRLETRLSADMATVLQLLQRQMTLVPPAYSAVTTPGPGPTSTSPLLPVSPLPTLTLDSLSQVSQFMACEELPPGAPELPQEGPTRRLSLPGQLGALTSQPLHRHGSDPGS

| Structure (SMILES) | Parasitaemia (percentage) Rings ([1]; 8500 (nM per legend)) | Parasitaemia (percentage) Trophozoites ([1]; 8500 (nM per legend)) | IC50 [2] | IC50 (hERG potassium channel) | hERG channel inhibition (in words) (hERG potassium channel) | selectivity ratio at 300 s (hERG potassium channel) | inhibition at 300 s, 0.016 µM (hERG potassium channel) | inhibition at 300 s, 0.08 µM (hERG potassium channel) | inhibition at 300 s, 0.4 µM (hERG potassium channel) | inhibition at 300 s, 2 µM (hERG potassium channel) | inhibition at 300 s, 10 µM (hERG potassium channel) | inhibition at 300 s, 50 µM (hERG potassium channel) | Parasitaemia (percentage) Rings ([1]; 200 (μM per legend)) | Parasitaemia (percentage) Trophozoites ([1]; 200 (μM per legend)) |
| --- | --- | --- | --- | --- | --- | --- | --- | --- | --- | --- | --- | --- | --- | --- |
| CCC1=C(C[C@H]2NCCc3cc(OC)c(OC)cc32)C[C@H]2c3cc(OC)c(OC)cc3CCN2C1 [(−)-R,S-dehydroemetine, (S)-2-((R)-6,7-dimethoxy-1,2,3,4-tetrahydro-isoquinolin-1-ylmethyl)-3-ethyl-9,10-dimethoxy-1,6,7,11b-tetrahydro-4H-pyrido[2,1-a]isoquinoline * dihydrobromide] | 50.21% | 19.75% | 0.43 µM | 19.3 µM | not an hERG channel inhibitor | > 271 | 7.79% | 6.34% | 12.7% | 7.21% | 39.4% | 61.4% | – | – |
| CCC1=C(C[C@@H]2NCCc3cc(OC)c(OC)cc32)C[C@H]2c3cc(OC)c(OC)cc3CCN2C1 [(−)-S,S-dehydroisoemetine, (S)-2-((S)-6,7-dimethoxy-1,2,3,4-tetrahydro-isoquinolin-1-ylmethyl)-3-ethyl-9,10-dimethoxy-1,6,7,11b-tetrahydro-4H-pyrido[2,1-a]isoquinoline * dihydrobromide] | – | – | > 10 µM | 2.99 µM | potent inhibitor | 1.48 | 8.13% | 4.61% | 9.33% | 36% | 70.7% | 96.9% | 70.98% | 24.67% |
